Entries after “also recorded” stand apart in the source; their conditions may differ.
What was measured:
Japanese white rabbits = experiment: Rabbit intraocular pressure reduction test; assay type: in vivo; conditions: FIG. 1
Protocol: In order to examine difference in the intraocular pressure reducing effect depending on a different pH of (S)-1-(4-chloro-5-isoquinolinesulfonyl)-3-(methylamino)pyrrolidine solution, the following test was performed by using Japanese white rabbits as experimental animals.
(S)-1-(4-Chloro-5-isoquinolinesulfonyl)-3-(methylamino)pyrrolidine hydrochloride obtained by the method described in International Patent Publication WO2007/026664 was dissolved in physiological saline, the solution was adjusted to pH 4, 5, 6, 7, 8 and 9 by adding sodium hydroxide, and the final concentration was adjusted to 0.5 mM. These solutions were used as (S)-1-(4-chloro-5-isoquinolinesulfonyl)-3-(methylamino)pyrrolidine solutions having different pH values.
The rabbits used were sufficiently conditioned for ophathalmic tonometry test, and used as groups each consisting of 6 animals. After a Benoxil ophthalmic solution 0.4% (an ophthalmologic local anesthesant, Santen Pharmaceutical Co., Ltd.) was applied to both eyes of each rabbit, intraocular pressure value before instillation was measured (initial intraocular pressure value, both right and left eyes) by using an ophathalmic tonometer (Model 30 Classic, Solan). […] After 2, 4, and 6 hours from the instillation, each rabbit was topically anesthetized with the an ophthalmologic local anesthesant, and intraocular pressure values of the both eyes were measured. […]

Photostability test = assay type: physicochemical; conditions: aqueous solution; estimated from similar absorption spectrum
Protocol: In the following test, LT-120D3CJ (Nagano Science Co., Ltd.) was used as a photostability tester. Purity of (S)-1-(4-chloro-5-isoquinolinesulfonyl)-3-(methylamino)pyrrolidine in the samples of the examples and the comparative example was measured by the liquid chromatography method described in Test Example 2.
The samples of Example 5 and Comparative Example 3 were subjected to light irradiation at 5,000 lux for ten days […] at 25° C. by using a D65 daylight fluorescent lamp installed in the photostability tester. As the photostability tester, an apparatus was used that was capable of uniformly irradiating the samples with light by turning a table. The illumination was 5,000 lux, and 1,200,000 lux·hr in total was irradiated over ten days. The accumulated near-ultraviolet energy during the photostability test was 474 to 488 W·h/m^2.
2) Purities of (S)-1-(4-chloro-5-isoquinolinesulfonyl)-3-(methylamino)pyrrolidine in the solutions of the light-irradiated samples were compared with that of a sample stored at 5° C. in a dark place.

photostability properties compared with the (methylamino)pyrrolidine compound (Photostability test) | Compound | intraocular pressure reducing action (Japanese white rabbits; 0.5 mM solutions adjusted to pH 4, 5, 6, 7, 8 and 9, instillation to normal rabbits, 2, 4 and 6 hours) | intraocular pressure reducing action (Japanese white rabbits; 0.5 mM solutions at pH 7 to 9, instillation to rabbits)
– | CN[C@H]1CCN(S(=O)(=O)c2cccc3cncc(Cl)c23)C1 [(S)-1-(4-chloro-5-isoquinolinesulfonyl)-3-(methylamino)pyrrolidine] | more strongly exhibited when a pH became higher in the range of pH 4 to 9; also recorded: became higher in a pH-dependent manner | strongly exhibited
similar | N[C@H]1CCN(S(=O)(=O)c2cccc3cncc(Cl)c23)C1 [(S)-1-(4-chloro-5-isoquinolinesulfonyl)-3-aminopyrrolidine] | – | –

From patent US20110184017A1, “STABLE AQUEOUS SOLUTION COMPOSITION CONTAINING SULFONAMIDE COMPOUND” (ASAHI KASEI PHARMA CORPORATION, priority 2008, published 2011)
